Test results: BindingDB's records for doi:10.1016/s0960-894x(02)00294-9 (Glaxosmithkline, 2002)
pKi: −log10 of the molar value.

Target: Human cytomegalovirus protease (HHV-5)
Experiment: Tested in vitro for its binding affinity against Protease

Compound: C[C@@H]1[C@H](C)[C@@H]1C(=O)N1C(=O)[C@@H](C)[C@@H]2[C@@H]1CCN2C(=O)[C@@H]1CCCN1S(=O)(=O)c1cccc2c(N(C)C)cccc12 [4-[1-(5-dimethylamino-1-naphthylsulfonyl)tetrahydro-1H-2-pyrrolylcarbonyl]-1-(2,3-dimethylcyclopropylcarbonyl)-3-methylperhydropyrrolo[3,2-b]pyrrol-2-one]
- pKi: 5.96

Compound: C[C@@H]1C(=O)N(c2nccs2)[C@H]2CCN(C(=O)[C@@H]3CCCN3S(=O)(=O)c3cccc4c(N(C)C)cccc34)[C@H]12 [(3S,3aR,6aS)-4-[(S)-1-(5-Dimethylamino-naphthalene-1-sulfonyl)-pyrrolidine-2-carbonyl]-3-methyl-1-thiazol-2-yl-hexahydro-pyrrolo[3,2-b]pyrrol-2-one]
- pKi: 6.40
